From PMC5794799, “Kaempferol mitigates Endoplasmic Reticulum Stress Induced Cell Death by targeting caspase 3/7” (Scientific Reports, 2018)

Target: T1, caspase-3 (Homo sapiens, UniProt P42574)
T1 construct: gene CASP3; recombinant active caspase-3 enzyme
T1 sequence (P42574 29-175): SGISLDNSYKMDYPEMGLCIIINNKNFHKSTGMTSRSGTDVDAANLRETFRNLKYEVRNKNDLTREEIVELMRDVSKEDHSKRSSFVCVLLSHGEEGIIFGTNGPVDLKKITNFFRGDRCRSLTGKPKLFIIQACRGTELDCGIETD
T1 sequence (P42574 176-277): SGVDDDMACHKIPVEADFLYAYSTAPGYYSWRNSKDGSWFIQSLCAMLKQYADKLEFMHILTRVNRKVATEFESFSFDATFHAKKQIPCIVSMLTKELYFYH
Assay: recombinant caspase-3 activity assay with luminogenic Z-DEVD-aminoluciferin (Caspase-Glo […]), dose response
Assay type: biochemical

- IC50: 5.65 µM
SMILES: O=c1c(O)c(-c2ccc(O)cc2)oc2cc(O)cc(O)c12 [kaempferol]
